Source: PubChem BioAssay (NCI)
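Interpolation was linear, between the two tested concentrations surrounding the appropriate level; five concentrations were tested over 48 hours in 96-well plates. The concentration for 50% growth inhibition is given as GI50. TGI denotes the concentration required for complete inhibition of growth.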

What was measured:
Assay in all cases: growth of human tumour cells (NCI), 48 h
SK-MEL-28 melanoma = tested on: SK-MEL-28 melanoma
UACC-257 melanoma = tested on: UACC-257 melanoma
RPMI-8226 leukemia = tested on: RPMI-8226 leukemia
SN12C renal = tested on: SN12C renal
LOX IMVI melanoma = tested on: LOX IMVI melanoma
A549 NSCLC = tested on: A549 NSCLC
MOLT-4 leukemia = tested on: MOLT-4 leukemia
DU-145 prostate = tested on: DU-145 prostate
SNB-19 CNS = tested on: SNB-19 CNS
SR leukemia = tested on: SR leukemia
HS 578T breast = tested on: HS 578T breast
NCI-H226 lung = tested on: NCI-H226 lung
COLO 205 colon = tested on: COLO 205 colon
786-0 renal = tested on: 786-0 renal
SK-OV-3 ovarian = tested on: SK-OV-3 ovarian
HOP-62 NSCLC = tested on: HOP-62 NSCLC
OVCAR-8 ovarian = tested on: OVCAR-8 ovarian
OVCAR-3 ovarian = tested on: OVCAR-3 ovarian
KM12 colon = tested on: KM12 colon
EKVX NSCLC = tested on: EKVX NSCLC
TK-10 renal = tested on: TK-10 renal
HOP-92 NSCLC = tested on: HOP-92 NSCLC
K-562 leukemia = tested on: K-562 leukemia
BT-549 breast = tested on: BT-549 breast
M14 melanoma = tested on: M14 melanoma
CCRF-CEM leukemia = tested on: CCRF-CEM leukemia
CAKI-1 renal = tested on: CAKI-1 renal
PC-3 prostate = tested on: PC-3 prostate
MDA-MB-231 breast = tested on: MDA-MB-231 breast
HCT-15 colon = tested on: HCT-15 colon
ACHN renal = tested on: ACHN renal
IGROV1 ovarian = tested on: IGROV1 ovarian
SF-295 CNS = tested on: SF-295 CNS
OVCAR-4 ovarian = tested on: OVCAR-4 ovarian
HCT-116 colon = tested on: HCT-116 colon
NCI-H522 lung = tested on: NCI-H522 lung
MDA-MB-435 = tested on: MDA-MB-435
UACC-62 melanoma = tested on: UACC-62 melanoma
MDA-MB-468 breast = tested on: MDA-MB-468 breast
OVCAR-5 ovarian = tested on: OVCAR-5 ovarian
RXF 393 renal = tested on: RXF 393 renal
U251 CNS = tested on: U251 CNS
SK-MEL-5 melanoma = tested on: SK-MEL-5 melanoma
SF-268 CNS = tested on: SF-268 CNS
T-47D breast = tested on: T-47D breast
MALME-3M melanoma = tested on: MALME-3M melanoma
MCF7 breast = tested on: MCF7 breast
NCI-H460 lung = tested on: NCI-H460 lung
SW-620 colon = tested on: SW-620 colon
SF-539 CNS = tested on: SF-539 CNS
A498 renal = tested on: A498 renal
SK-MEL-2 melanoma = tested on: SK-MEL-2 melanoma
NCI-H23 lung = tested on: NCI-H23 lung
HL-60(TB) leukemia = tested on: HL-60(TB) leukemia
HT29 colon = tested on: HT29 colon
HCC-2998 colon = tested on: HCC-2998 colon
UO-31 renal = tested on: UO-31 renal

SMILES: COc1cc(/C=C/C(=O)c2cnn(-c3cc(=O)[nH]c4ccc(C)cc34)c2C)cc(OC)c1OC
- GI50 (SK-MEL-28 melanoma): 3.7 µM
- TGI (SK-MEL-28 melanoma): 13.2 µM
- GI50 (UACC-257 melanoma): 4.85 µM
- TGI (UACC-257 melanoma): 20.4 µM
- GI50 (RPMI-8226 leukemia): 2.02 µM
- TGI (RPMI-8226 leukemia): 7.59 µM
- GI50 (SN12C renal): 2.57 µM
- TGI (SN12C renal): 10.2 µM
- GI50 (LOX IMVI melanoma): 1.54 µM
- TGI (LOX IMVI melanoma): 3.76 µM
- GI50 (A549 NSCLC): 3.17 µM
- TGI (A549 NSCLC): 11.2 µM
- GI50 (MOLT-4 leukemia): 2.53 µM
- TGI (MOLT-4 leukemia): 10.4 µM
- GI50 (DU-145 prostate): 3.39 µM
- TGI (DU-145 prostate): 12.6 µM
- GI50 (SNB-19 CNS): 3.11 µM
- TGI (SNB-19 CNS): 12 µM
- GI50 (SR leukemia): 1.76 µM
- TGI (SR leukemia): 11.3 µM
- GI50 (HS 578T breast): 3.56 µM
- TGI (HS 578T breast): > 100 µM
- GI50 (NCI-H226 lung): 2.64 µM
- TGI (NCI-H226 lung): 7.79 µM
- GI50 (COLO 205 colon): 2.77 µM
- TGI (COLO 205 colon): 8.8 µM
- GI50 (786-0 renal): 3.52 µM
- TGI (786-0 renal): 14.6 µM
- GI50 (SK-OV-3 ovarian): 3.91 µM
- TGI (SK-OV-3 ovarian): 13.4 µM
- GI50 (HOP-62 NSCLC): 3.56 µM
- TGI (HOP-62 NSCLC): 12.5 µM
- GI50 (OVCAR-8 ovarian): 2 µM
- TGI (OVCAR-8 ovarian): 4.63 µM
- GI50 (OVCAR-3 ovarian): 2.79 µM
- TGI (OVCAR-3 ovarian): 7.95 µM
- GI50 (KM12 colon): 3.24 µM
- TGI (KM12 colon): 10.6 µM
- GI50 (EKVX NSCLC): 2.84 µM
- TGI (EKVX NSCLC): 12.2 µM
- GI50 (TK-10 renal): 3.54 µM
- TGI (TK-10 renal): 11.5 µM
- GI50 (HOP-92 NSCLC): 4.34 µM
- TGI (HOP-92 NSCLC): 23.4 µM
- GI50 (K-562 leukemia): 2.24 µM
- TGI (K-562 leukemia): > 100 µM
- GI50 (BT-549 breast): 2.43 µM
- TGI (BT-549 breast): 8.55 µM
- GI50 (M14 melanoma): 3.16 µM
- TGI (M14 melanoma): 13.2 µM
- GI50 (CCRF-CEM leukemia): 2.28 µM
- TGI (CCRF-CEM leukemia): 8.76 µM
- GI50 (CAKI-1 renal): 3.75 µM
- TGI (CAKI-1 renal): 18.6 µM
- GI50 (PC-3 prostate): 6.04 µM
- TGI (PC-3 prostate): 26.8 µM
- GI50 (MDA-MB-231 breast): 3.1 µM
- TGI (MDA-MB-231 breast): 11.9 µM
- GI50 (HCT-15 colon): 1.92 µM
- TGI (HCT-15 colon): 5.01 µM
- GI50 (ACHN renal): 1.72 µM
- TGI (ACHN renal): 3.79 µM
- GI50 (IGROV1 ovarian): 2.41 µM
- TGI (IGROV1 ovarian): 7.14 µM
- GI50 (SF-295 CNS): 3 µM
- TGI (SF-295 CNS): 11.1 µM
- GI50 (OVCAR-4 ovarian): 3.85 µM
- TGI (OVCAR-4 ovarian): 48.8 µM
- GI50 (HCT-116 colon): 3.63 µM
- TGI (HCT-116 colon): 12.9 µM
- GI50 (NCI-H522 lung): 2.65 µM
- TGI (NCI-H522 lung): 8.02 µM
- GI50 (MDA-MB-435): 3.02 µM
- TGI (MDA-MB-435): 12.1 µM
- GI50 (UACC-62 melanoma): 2.85 µM
- TGI (UACC-62 melanoma): 10.9 µM
- GI50 (MDA-MB-468 breast): 1.58 µM
- TGI (MDA-MB-468 breast): 3.63 µM
- GI50 (OVCAR-5 ovarian): 3.25 µM
- TGI (OVCAR-5 ovarian): 11.6 µM
- GI50 (RXF 393 renal): 2.09 µM
- TGI (RXF 393 renal): 5.13 µM
- GI50 (U251 CNS): 2.42 µM
- TGI (U251 CNS): 8.48 µM
- GI50 (SK-MEL-5 melanoma): 2.39 µM
- TGI (SK-MEL-5 melanoma): 7.34 µM
- GI50 (SF-268 CNS): 3.43 µM
- TGI (SF-268 CNS): 14.8 µM
- GI50 (T-47D breast): 2.57 µM
- TGI (T-47D breast): 16.2 µM
- GI50 (MALME-3M melanoma): 3.89 µM
- TGI (MALME-3M melanoma): 16.7 µM
- GI50 (MCF7 breast): 2.7 µM
- TGI (MCF7 breast): 11.4 µM
- GI50 (NCI-H460 lung): 1.86 µM
- TGI (NCI-H460 lung): 4.38 µM
- GI50 (SW-620 colon): 3.06 µM
- TGI (SW-620 colon): 10.5 µM
- GI50 (SF-539 CNS): 2.11 µM
- TGI (SF-539 CNS): 4.79 µM
- GI50 (A498 renal): 18 µM
- TGI (A498 renal): 35.9 µM
- GI50 (SK-MEL-2 melanoma): 2.9 µM
- TGI (SK-MEL-2 melanoma): 11 µM
- GI50 (NCI-H23 lung): 1.89 µM
- TGI (NCI-H23 lung): 4.3 µM
- GI50 (HL-60(TB) leukemia): 2.29 µM
- TGI (HL-60(TB) leukemia): 11.3 µM
- GI50 (HT29 colon): 3.07 µM
- TGI (HT29 colon): 10 µM
- GI50 (HCC-2998 colon): 2.98 µM
- TGI (HCC-2998 colon): 9.14 µM
- GI50 (UO-31 renal): 2.98 µM
- TGI (UO-31 renal): 13.1 µM
